Measured values reported in patent publication US11819561B2, “Oral care compositions” (Colgate-Palmolive Company, priority 2020, dated 2023).

Assays:
[1] = system: bacteria in saliva; assay: Alamar blue test for antimicrobial activity; assay type: cell-based
Protocol: Antimicrobial activity of the formulations is tested to determine whether the chlorhexidine is fully active. The Alamar blue test for antimicrobial activity is conducted according to standard methodology. Bacteria inoculum is prepared by diluting fresh saliva 2× with deionized water, followed by centrifugation at 8000 G/25° C. for 10 min, and decanting the upper clear liquid into a glass jar. The negative control (A) is distilled water. The positive control (B) is 2 wt. % chlorhexidine gluconate solution. The APG control (C) is a 10 wt. % decyl glucoside solution. The two test solutions are: (D) 2 wt. % chlorhexidine gluconate with 10 wt. % decyl glucoside; and (E) 2 wt. % chlorhexidine gluconate with 10 wt. % decyl glucoside solution, with 14% w/w STPP added. Each of the test solutions is combined with saliva in a weight ratio of 1:10 (solution to saliva). The pH of each mixture is adjusted to 5.5-7 by adding citric acid. The mixtures are vortexed for 1 minute, and incubated at 37° C. for 30 minutes. Subsequent addition of 200 μL of Alamar Blue dye immediately produced blue color in all samples and pictures were taken for comparison at different time intervals (0 hours, 24 hours, 48 hours) to show the evolution of color development. A blue color indicates bacterial kill in saliva and no bacterial growth, while a pink color indicates viable bacteria are still present. […]

[2] = Visual observation of formulation clarity and precipitation; assay type: physicochemical; conditions: Example 4, other cationic surfactants
Protocol: For the following experiments, a 0.2 wt. % aqueous solution of chlorhexidine gluconate, and a 10.0 wt. % aqueous solution of decyl glucoside (“APG”) are prepared. The pH of the decyl glucoside solution is adjusted to 5.5-7.0 using citric acid. For each formulation, the appropriate amount of the decyl glucoside solution is added to appropriate amounts of the chlorhexidine stock solution. STPP is then added to each formulation, and the mixture is agitated by a bath sonicator until no large solids remained. Additional citric acid is added to adjust the pH to 5.5-7.0. The formulations are then agitated for an additional five minutes, then allowed to equilibrate for 30 minutes before observation and transmittance measurements. For the following experiments, a 0.2 wt. % aqueous solution of chlorhexidine gluconate, and a 2.0 wt. % aqueous solution of CAPB are prepared. STPP is added to the chlorhexidine solution to provide 1.6 wt. % STPP. For each formulation, the appropriate amount of the CAPB solution is added to appropriate amounts of the chlorhexidine/STPP stock solution. The mixture is agitated by a bath sonicator, and then additional citric acid is added to adjust the pH to 6.12-6.19. The formulations are then agitated for an additional five minutes, then allowed to equilibrate for 18 hours before observation. […]

CCCCCCCCCCO[C@@H]1O[C@H](CO)[C@@H](O)[C@H](O)[C@H]1O [Sample (C) (APG contr), decyl glucoside]
Alamar Blue color change ([1]; Example 1 (APG)): color change from blue to pink after two days

benzalkonium chloride
Stabilization effect on CHX/STPP [2]: stabilization effect was not observed

cocamidopropyl betaine [Sample (C) (CAPB contr)]
Alamar Blue color change ([1]; Example 2 (CAPB)): color change from blue to pink after two days
